Assay results published in US20260216220A1, “TREATMENT OF MYELOPEROXIDASE-POSITIVE ANCA-ASSOCIATED VASCULITIS WITH H2S RELEASING COMPOUNDS” (DEBRECENI EGYETEM, priority 2022, published 2026).
Like-named read-outs stand apart in the source and are kept apart here.

How the values were obtained:
[1] = tested on: mouse model of MPO-ANCA vasculitis; assay: ANCA vasculitis mouse model (anti-MPO splenocyte transfer into Rag2−/− mice), kidney histology; type: in vivo; settings: ATB 60 μmol/kg, administered orally (per os)
Experimental: MPO knockout mice were immunized with mouse MPO based on the following protocol. On day 1 200 μl of 20 μg murine MPO (mMPO) or BSA in total with Complete Freud's Adjuvant were injected to MPO KO mice. 30-40 μl were injected to the backfoot footpads and 120-160 μl were injected subcutaneously in the abdominal region. On day 14 20 μg mMPO/BSA were injected IP with incomplete Freud's Adjuvant and on day 28 mice were boosted with 20 μg mMPO/BSA in DPBS buffer IP. 10 days after boost blood was drawn from eye corner under isoflurane anesthesia and antibody titers were checked by anti-MPO ELISA. If titer were low mice were boosted again with 20 μg mMPO or BSA and titer were checked again 7 days later. If titers were appropriate mice were terminated and splenocytes were isolated. […] The remaining red blood cells were lysed with Red Blood Cell Lysis Buffer according to manufacturer's instructions. […] Cells were counted using trypan blue solution, the total cell count varied between 3×10^7 and 6×10^7. Splenocytes derived from 1 mouse were injected into 2 Rag2−/− immunodeficient mice intravenously. […] After 4 weeks antibody titers were checked with anti-MPO ELISA. […]
The percentage of affected glomeruli in treated samples were calculated compared to their control pairs.

neutrophils [2] = settings: cited from earlier work
neutrophils [3] = assay: Neutrophil phagocytosis of fluorescent Escherichia coli K-12 BioParticles (Vybrant kit); type: cell-based, human; settings: GYY4137 10-100 μM, 2 hours
Experimental: Phagocytosis experiments were carried out with the Vybrant™ Phagocytosis Assay Kit based on manufacturers instruction. Briefly, Fluorescent-labeled Escherichia coli K-12 BioParticles, and trypan blue stock solutions were prepared. […] 1 hour or 5 minutes prior to the addition of the fluorescent BioParticles suspension. After 2 hours the BioParticle solution was removed, 100 μl trypan blue solution was added immediately, and incubated for 1 minute at room temperature. Trypan blue was removed and 100 μl HBSS was added to each well. Fluorescence was measured at the excitation and emission wavelengths of 480 and 520 nm respectively. Samples for microscopy analysis were prepared similarly with the cell number of 2×10^5/well in EZ slide chamber slides.

neutrophils [4] = settings: cited from earlier work; remark: listed apart in the source
[5] = tested on: PMA-activated neutrophils
[6] = tested on: PMA activated neutrophils
[7] = upon PMA and bacterial activation

Question: With `COc1ccc2cc(C(C)C(=O)Oc3ccc(C(N)=S)cc3)ccc2c1` (stereo not drawn) [ATB346] as the compound, how does the “efficacy on kidney damage in ANCA mouse model” value [1] read?
Answer: nor proved to be beneficial in reducing kidney damage

Question: And the “efficacy on kidney damage in ANCA mouse model” value ([1]; listed as ATB)?
Answer: proved to be inefficient

Question: What does the source list for `N[C@@H](CS)C(=O)O` [cysteine]?
Answer: neutrophil apoptosis (neutrophils [2]; [7]): inhibited neutrophil apoptosis; oxidative burst (neutrophils [2]; [7]): promoted oxidative burst

Question: Which “phagocytosis of E. coli Bioparticles (fluorescent microscopy)” value (neutrophils [3]) does the source give for `C=C1[C@@H](C)[C@H]2[C@H](Cc3ccccc3)NC(=O)[C@]23[C@H](OC(C)=O)/C=C/[C@@](C)(O)C(=O)[C@@H](C)C/C=C/[C@H]3[C@@H]1O` [cytochalasin D] here?
Answer: inhibited

Question: What does the source list for `C=CCSSCC=C` [diallyl-disulfide]?
Answer: neutrophil apoptosis (neutrophils [2]; [7]): inhibited neutrophil apoptosis; oxidative burst (neutrophils [2]; [7]): promoted oxidative burst

Question: For `C=CCSSSCC=C` [diallyl-trisulfide], which neutrophil apoptosis (neutrophils [2]; [7]) is on record?
Answer: inhibited neutrophil apoptosis

Question: And the oxidative burst (neutrophils [2]; [7])?
Answer: promoted oxidative burst

Question: With sodium sulfide as the compound, how does the “killing of bacteria by neutrophils” value (neutrophils [4]) read?
Answer: more efficient in killing bacteria

Question: What about the neutrophil apoptosis (neutrophils [4]) of the same compound?
Answer: diminished neutrophil apoptosis

Question: And the neutrophil apoptosis (neutrophils [2])?
Answer: inhibited neutrophil apoptosis

Question: And the oxidative burst (neutrophils [2])?
Answer: promoted oxidative burst

Question: And the “β-glucuronidase activity in supernatants (degranulation), PMA activation” value [5]?
Answer: no effect on the enzymatic activity

Question: What about the “H2O2 production by PMA-activated neutrophils (FOX assay)” value [6] of the same compound?
Answer: not affected
